From US11007274B2, “Compounds for medicinal applications” (Ausvir Therapeutics Pty LTD, priority 2015, dated 2021)
≈ marks a conversion by molar mass, not a printed value. Where “and” joins values, the source holds several entries; their conditions need not be identical. Identical values can stand only once. Like-named read-outs stand apart in the source and are kept apart here.

Legend:
PR8 influenza virus = assay: Viral clearance rates in the lung and nasal turbinates, weight loss (Table 6); type: in vivo, mice
A/Mississippi/03/01H274Y = type: cell-based, influenza virus
CA/07/2009 virus H1N1 = assay: Viral Plaque Reduction Assay (Table 22); type: cell-based; settings: Influenza A virus, Table 22, plaque reduction, read-out: EC50
A/PR/8 virus H1N1 = assay: Viral Plaque Reduction Assay (Table 23); type: cell-based, influenza virus; settings: Table 23, plaque reduction, read-out: EC50
CA/07/2009 = assay: microbe, parasite or virus in culture; type: cell-based
Duck/MN/1525/81 = type: cell-based; settings: Table 7
Perth/16/2009 = assay: microbe, parasite or virus in culture; type: cell-based
Florida/4/2006 = assay: microbe, parasite or virus in culture; type: cell-based
[1] = tested on: Influenza A virus H7N9, A/Anhui/1/2003; type: cell-based
[2] = tested on: Influenza A virus H7N9, A/Anhui/1/2003; type: cell-based; remark: listed apart in the source
[3] = tested on: Influenza A virus H5N1, Hong Kong/213/2003; assay: microbe, parasite or virus in culture; type: cell-based
[4] = tested on: Influenza A virus H5N1, Hong Kong/213/2003; assay: microbe, parasite or virus in culture; type: cell-based; remark: listed apart in the source
[5] = line Neutral Red (Cytopathic effect/Toxicity)

Q: What does the source list for CC(=O)N[C@H]1[C@H]([C@H](O)[C@H](O)CO)OC(C(=O)O)=C[C@@H]1N=C(N)N [Zanamivir, reference compound]?
A: lung viral titre, Group mean titres (PR8 influenza virus; Day 1): 2.60 log10; lung viral titre, Group mean titres (PR8 influenza virus; Day 3): 4.28 log10; lung viral titre, Group mean titres (PR8 influenza virus; Day 5): 4.85 log10; lung viral titre, Group mean titres (PR8 influenza virus; Day 7): 4.72 log10; weight loss compared with PBS (PR8 influenza virus; days 3, 4 and 5, Bonferroni post-test p<0.001): significantly different from PBS; lung viral titre, Individual titres (PR8 influenza virus; mouse, in vivo): 4.44 log10 and 4.66 log10 and 4.97 log10 (2×) and 4.19 log10 and 3.16 log10 and 4.84 log10 and 3.00 log10 and 5.77 log10 and 5.66 log10; EC50 (A/Mississippi/03/01H274Y): > 66 nM; EC50 (CA/07/2009 virus H1N1): 0.00197 µg/mL and 5.93 nM; EC50 (A/PR/8 virus H1N1; Influenza A virus): 10200 nM

Q: What does the source list for CC(=O)N[C@H]1[C@H]([C@H](OC(=O)NCCCCCCCCNC(=O)[C@@H]2C[C@H](C(=O)NCCCCCCCCNC(=O)O[C@@H]([C@@H]3OC(C(=O)O)=C[C@H](N=C(N)N)[C@H]3NC(C)=O)[C@H](O)CO)C[C@H](C(=O)N[C@@H](CC(=O)NCS(=O)(=O)O)C(=O)NCS(=O)(=O)O)C2)[C@H](O)CO)OC(C(=O)O)=C[C@@H]1N=C(N)N [MD154, CHTCA(Z0)2-L-Asp(NHCH2SO3H)2]?
A: EC50 (CA/07/2009; Table 7): 6.06 nM; EC50 CA/07/2009 (CA/07/2009; Table 7, MDCK cell line): 9 ng/mL (≈ 6.05 nM); EC50 (Duck/MN/1525/81): < 0.087 nM; EC50 (Perth/16/2009; Table 7): < 0.087 nM; EC50 Perth/16/2009 (Perth/16/2009; Table 7): <0.13 ng/mL; EC50 (Florida/4/2006; Table 7): < 0.087 nM; EC50 Florida/4/2006 (Florida/4/2006; Table 7): <0.13 ng/mL; EC90 [1]: 10 ng/mL (≈ 6.73 nM); EC50 [2]: <0.32 ng/mL; EC90 [3]: <0.32 ng/mL; EC50 [4]: <0.32 ng/mL; CC50 ([5]; Table 9): >1000 ng/mL; CC50 ([5]; Table 10): >1000 ng/mL

Q: Which results are given for CC(=O)N[C@H]1[C@H]([C@H](OC(=O)NCCCCNC(=O)[C@@H]2C[C@H](C(=O)NCCCCNC(=O)O[C@@H]([C@@H]3OC(C(=O)O)=C[C@H](N=C(N)N)[C@H]3NC(C)=O)[C@H](O)CO)C[C@H](C(=O)N[C@@H](CC(=O)O)C(=O)O)C2)[C@H](O)CO)OC(C(=O)O)=C[C@@H]1N=C(N)N [MD206, CHTCA(Zb)2-L-Asp]?
A: EC50 (CA/07/2009; Table 7): 1.68 nM; EC50 CA/07/2009 (CA/07/2009; Table 7, MDCK cell line): 2 ng/mL (≈ 1.68 nM); EC50 (Duck/MN/1525/81): 0.59 nM; EC50 (Perth/16/2009; Table 7): 6.1 nM; EC50 Perth/16/2009 (Perth/16/2009; Table 7): 7.3 ng/mL (≈ 6.14 nM); EC50 Florida/4/2006 (Florida/4/2006; Table 7): >10000 ng/mL; EC50 (Florida/4/2006; Table 7, cells of the nM column printed in μM): > 8400 nM

Q: Which EC50 (CA/07/2009) does the source give for CC(=O)N[C@H]1[C@H]([C@H](OC(=O)NCCCCNC(=O)c2cc(C(=O)NCCCCNC(=O)O[C@@H]([C@@H]3OC(C(=O)O)=C[C@H](N=C(N)N)[C@H]3NC(C)=O)[C@H](O)CO)c(C(=O)N[C@H](CC(=O)NCS(=O)(=O)O)C(=O)NCS(=O)(=O)O)cc2C(=O)N[C@H](CC(=O)NCS(=O)(=O)O)C(=O)NCS(=O)(=O)O)[C@H](O)CO)OC(C(=O)O)=C[C@@H]1N=C(N)N [MD219, PK2 PYR(Zb)2[(D-Asp)(NHCH2SO3H)2]2] here?
A: The EC50 was 2.92 nM.

Q: And the “EC50 CA/07/2009” value (CA/07/2009)?
A: The value was 5 ng/mL (≈ 2.92 nM).

Q: And the EC50 (Duck/MN/1525/81)?
A: Its EC50 is 0.29 nM.

Q: What about the EC50 (Perth/16/2009) of the same compound?
A: The EC50 was > 5800 nM.

Q: And the “EC50 Perth/16/2009” value (Perth/16/2009)?
A: The value was >10000 ng/mL.

Q: And the EC50 (Florida/4/2006)?
A: Its EC50 is 0.99 nM.

Q: What about the “EC50 Florida/4/2006” value (Florida/4/2006) of the same compound?
A: Its value is 1.7 ng/mL (≈ 0.992 nM).

Q: For CC(=O)N[C@H]1[C@H]([C@H](OC(=O)NCCCCCCCCNC(=O)CC(CC(=O)N[C@H](CS(=O)(=O)O)C(=O)N[C@H](CS(=O)(=O)O)C(=O)N[C@H](CS(=O)(=O)O)C(=O)O)C(=O)NCCCCCCCCNC(=O)O[C@@H]([C@@H]2OC(C(=O)O)=C[C@H](N=C(N)N)[C@H]2NC(C)=O)[C@H](O)CO)[C@H](O)CO)OC(C(=O)O)=C[C@@H]1N=C(N)N (stereo partly drawn) [MD343, PK2 TCA(Z0)2-[D-Cya]3-OH], which EC50 (A/PR/8 virus H1N1) is on record?
A: The EC50 was 1.27 nM.
